This is an account of results in ChEMBL document CHEMBL1201862, “PubChem BioAssay data set” (2004).

Structures are written as SMILES.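 Each compound was tested at five concentrations against cells in 96-well plates for 48 hours. GI50 marks 50% less growth.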 Active and inactive are the calls of the source. No stated cut-off is given here; in the data, active = GI50 up to about 1.1 µM and inactive = higher.

Test systems include SF-295; KM12; OVCAR-5; NCI-H522; RXF 393; SNB-19; RPMI-8226; NCI-H460; SW-620; SN12C; TK-10; HT-29; 786-0; U-251; HL-60; COLO 205; NCI-H23; NCI/ADR-RES; PC-3.
Common to all, as to test: NCI tumour cell line growth inhibition, 48 h

Take `O/N=C1/C(=C/c2ccc(Br)cc2)CCCC1C(NO)c1ccc(Br)cc1` (stereo not given): the GI50 is 16.7 µM (inactive) in the assay with SF-295; 19.2 µM (inactive) with KM12; 11.4 µM (inactive) in the assay on OVCAR-5; 16 µM (inactive) in the assay on NCI-H522; 15.6 µM (inactive) in the assay with RXF 393; 15.8 µM (inactive) in the assay with SNB-19. Moreover, the GI50 in the assay on RPMI-8226 was 17.8 µM (inactive); in the assay on NCI-H460 it was > 10 µM (inactive); in the assay with SW-620 it was 20.4 µM (inactive); in the assay on SN12C, 12.4 µM (inactive); in the assay with TK-10 it was 18.3 µM (inactive); in the assay on HT-29, 18.3 µM (inactive). The GI50 in the assay with 786-0 is 16.8 µM (inactive); in the assay on U-251, 18.9 µM (inactive); in the assay on HL-60, > 100 µM (inactive); with COLO 205, 15.3 µM (inactive); in the assay with NCI-H23, > 10 µM (inactive).

For the compound `Cc1nc(C(N)=S)sc1C(=O)/C=C/c1c(O)ccc2ccccc12`, the GI50 was 51.5 µM (inactive) with SF-295; 31.3 µM (inactive) with KM12; > 100 µM (inactive) in the assay with OVCAR-5; 26.9 µM (inactive) with NCI-H522; 31.8 µM (inactive) in the assay on RXF 393; > 100 µM (inactive) in the assay with SNB-19. Besides, the GI50 is 29.4 µM (inactive) in the assay with RPMI-8226; > 100 µM (inactive) with NCI-H460; 39.4 µM (inactive) in the assay with SW-620; > 88.1 µM (inactive) with SN12C; > 100 µM (inactive) in the assay with TK-10; > 100 µM (inactive) in the assay on HT-29. Further, the GI50 was > 74.3 µM (inactive) in the assay on 786-0; > 100 µM (inactive) in the assay on U-251; 22.1 µM (inactive) with HL-60; > 100 µM (inactive) with COLO 205; > 67.5 µM (inactive) with NCI-H23.

Take `COc1cc(C=O)c(-c2cc(OC)c(OC)cc2C=O)cc1OC`: the GI50 in the assay with SF-295 was > 100 µM (inactive); in the assay on KM12 it was > 100 µM (inactive); in the assay on OVCAR-5, > 100 µM (inactive); with NCI-H522, > 100 µM (inactive); in the assay on RXF 393, 24.5 µM (inactive); in the assay with SNB-19, > 100 µM (inactive). Also, the GI50 in the assay on RPMI-8226 is 36.9 µM (inactive); with NCI-H460, 90.4 µM (inactive); with SW-620, 78 µM (inactive); in the assay on SN12C, > 100 µM (inactive); in the assay with TK-10, > 100 µM (inactive); in the assay with HT-29, 76.2 µM (inactive). Moreover, the GI50 in the assay on 786-0 was > 100 µM (inactive); in the assay with U-251, > 100 µM (inactive); in the assay with HL-60, 36.8 µM (inactive); with COLO 205 it was > 100 µM (inactive); in the assay with NCI-H23, 52.6 µM (inactive).

For the compound `COc1cc(CNC2c3cc4c(cc3C(c3cc(OC)c(OC)c(OC)c3)[C@H]3C(=O)OCC23)OCO4)cc(OC)c1OC` (stereo not given in full), the GI50 was 0.137 µM (active) in the assay with SF-295; 0.177 µM (active) in the assay on KM12; > 100 µM (inactive) with OVCAR-5; 0.0661 µM (active) with NCI-H522; 0.308 µM (active) with RXF 393; 0.272 µM (active) in the assay with SNB-19. In addition, the GI50 with RPMI-8226 is 0.419 µM (active); in the assay with NCI-H460, 0.29 µM (active); in the assay on SW-620, 0.416 µM (active); with SN12C it was 0.376 µM (active); with TK-10, > 100 µM (inactive); with HT-29 it was 0.335 µM (active). The GI50 in the assay with 786-0 is 0.428 µM (active); in the assay with U-251, 0.318 µM (active); in the assay on HL-60, 0.223 µM (active); with COLO 205 it was 0.18 µM (active); in the assay with NCI-H23, 0.267 µM (active).

Take `CC(C)(C)Cc1cc(O)ccc1O`: the GI50 with SF-295 was 44 µM (inactive); in the assay with KM12 it was 64.9 µM (inactive); with OVCAR-5 it was > 100 µM (inactive); in the assay with NCI/ADR-RES it was 35.6 µM (inactive); in the assay with NCI-H522, 27 µM (inactive); in the assay with RXF 393, 98.6 µM (inactive). For the same compound, the GI50 was 49.9 µM (inactive) with SNB-19; > 100 µM (inactive) in the assay with PC-3; 63.4 µM (inactive) with NCI-H460; 61.9 µM (inactive) with SW-620; 51.3 µM (inactive) in the assay on SN12C; > 100 µM (inactive) with TK-10. In addition, the GI50 is > 100 µM (inactive) in the assay on HT-29; 63.5 µM (inactive) in the assay with 786-0; 43.5 µM (inactive) with U-251; 6.73 µM (inactive) with HL-60; > 100 µM (inactive) in the assay with COLO 205; 77.3 µM (inactive) in the assay with NCI-H23.

As for `COC(=O)C1=C2SCc3cccc(c3)CSC3=C(C(=O)OC)SC(=C(S2)S1)S3`, the GI50 was > 100 µM (inactive) in the assay with SF-295; > 100 µM (inactive) in the assay on KM12; > 100 µM (inactive) in the assay on RXF 393; > 100 µM (inactive) in the assay on SNB-19; 35.5 µM (inactive) with PC-3; > 100 µM (inactive) in the assay with RPMI-8226. Further, the GI50 was > 100 µM (inactive) with NCI-H460; > 100 µM (inactive) with SW-620; 65.9 µM (inactive) with SN12C; > 100 µM (inactive) with TK-10; > 100 µM (inactive) in the assay with 786-0; 40.2 µM (inactive) in the assay with U-251. For the same compound, the GI50 in the assay on HL-60 was 25.9 µM (inactive); in the assay on COLO 205 it was > 100 µM (inactive).

For the compound `Cc1cc(OC(=O)c2c(C)cc(OC(=O)c3c(C)cc(O)cc3O)cc2O)cc(O)c1C(=O)O` [GYROPHORIC ACID], the GI50 in the assay on SF-295, in the assay with KM12, in the assay on OVCAR-5, in the assay with NCI-H522, with RXF 393 and with SNB-19 was > 100 µM (inactive) in each case. Besides, the GI50 in the assay on RPMI-8226, in the assay with NCI-H460, with SW-620, in the assay on SN12C, in the assay on TK-10 and with HT-29 was > 100 µM (inactive) throughout. For the same compound, the GI50 in the assay with 786-0, in the assay on U-251, with HL-60, with COLO 205 and in the assay with NCI-H23 was > 100 µM (inactive) throughout.

As for `CC(=O)OCC1OC(n2c(=O)n(-c3ccccc3)c(=O)c3ccccc32)C(OC(C)=O)C(OC(C)=O)C1OC(C)=O` (stereo not given), the GI50 with SF-295, in the assay on KM12, in the assay with OVCAR-5, with NCI-H522, with RXF 393 and in the assay on SNB-19 was > 100 µM (inactive) throughout. Besides, the GI50 was 73.8 µM (inactive) in the assay on RPMI-8226; > 100 µM (inactive) with NCI-H460; > 100 µM (inactive) with SW-620; > 100 µM (inactive) with SN12C; > 100 µM (inactive) in the assay with TK-10; > 100 µM (inactive) in the assay on HT-29. In addition, the GI50 in the assay with 786-0, in the assay on U-251, with HL-60, in the assay on COLO 205 and in the assay with NCI-H23 was > 100 µM (inactive) each time.

As to `O=C(O[C@H]1[C@@H]2C=CO[C@@H](OC3OC(CO)C(O)C(O)C3O)[C@@H]2[C@@]2(CO)O[C@@H]12)c1ccc(O)c(O)c1` (stereo not given in full), the GI50 in the assay with SF-295, in the assay with KM12, in the assay with OVCAR-5, in the assay with NCI-H522, in the assay with RXF 393 and in the assay on SNB-19 was > 100 µM (inactive) each time. For the same compound, the GI50 in the assay with RPMI-8226, in the assay with NCI-H460, in the assay with SW-620, in the assay with SN12C, in the assay with TK-10 and in the assay on HT-29 was > 100 µM (inactive) in each case. For the same compound, the GI50 in the assay with 786-0, in the assay with U-251, in the assay on HL-60, in the assay with COLO 205 and in the assay with NCI-H23 was > 100 µM (inactive) in each case.

`CC1CCN(C(C)C)P(=S)(Cc2ccccc2)O1` (stereo not given): the GI50 is 34 µM (inactive) in the assay with SF-295; > 100 µM (inactive) in the assay with KM12; > 100 µM (inactive) in the assay with OVCAR-5; > 100 µM (inactive) in the assay on NCI/ADR-RES; > 100 µM (inactive) in the assay with SNB-19; 55 µM (inactive) with PC-3. Further, the GI50 in the assay on RPMI-8226 is 99.8 µM (inactive); in the assay with NCI-H460, > 100 µM (inactive); in the assay on SW-620, 7.93 µM (inactive); with TK-10, 75 µM (inactive); in the assay on HT-29, > 100 µM (inactive); in the assay on 786-0, > 100 µM (inactive). Further, the GI50 in the assay with U-251 is > 100 µM (inactive); with COLO 205, > 100 µM (inactive); in the assay on NCI-H23, 92.9 µM (inactive).

Regarding `O=c1c2ccccc2[nH]c2ccc3c(Cl)n[nH]c3c12`, the GI50 is 37.2 µM (inactive) in the assay with SF-295; 32.9 µM (inactive) in the assay on KM12; 41.1 µM (inactive) with OVCAR-5; 35 µM (inactive) in the assay with NCI-H522; 42.2 µM (inactive) in the assay on RXF 393; 32.7 µM (inactive) with SNB-19. The GI50 in the assay with RPMI-8226 was 39.7 µM (inactive); with NCI-H460, 31.8 µM (inactive); in the assay with SW-620, 36.5 µM (inactive); in the assay with SN12C it was 33.5 µM (inactive); in the assay on TK-10, 23.8 µM (inactive); in the assay with HT-29 it was 37.6 µM (inactive). The GI50 in the assay with 786-0 was 34.1 µM (inactive); with U-251, 53.6 µM (inactive); with HL-60, 40.1 µM (inactive); in the assay with COLO 205 it was 36.4 µM (inactive); in the assay on NCI-H23 it was 35.2 µM (inactive).

For `Clc1ccc(/C=C/c2nc(-c3ccccc3)cn3c2nc2ccccc23)cc1Cl`, the GI50 was 31.4 µM (inactive) in the assay on KM12; > 100 µM (inactive) in the assay on OVCAR-5; 55.6 µM (inactive) in the assay on NCI/ADR-RES; 50.7 µM (inactive) in the assay on RXF 393; 59.6 µM (inactive) in the assay with SNB-19; 62.4 µM (inactive) with PC-3. For the same compound, the GI50 in the assay with RPMI-8226 was 41.9 µM (inactive); in the assay on NCI-H460 it was 32.7 µM (inactive); in the assay with SW-620, 41.6 µM (inactive); in the assay on SN12C, 38.1 µM (inactive); in the assay with TK-10, 56.6 µM (inactive); in the assay on HT-29, 37.3 µM (inactive). Also, the GI50 in the assay with 786-0 is 37.5 µM (inactive); in the assay with U-251, 42 µM (inactive); with HL-60, 19.6 µM (inactive); in the assay with COLO 205 it was > 100 µM (inactive); in the assay on NCI-H23, 31.2 µM (inactive).
